Reference: patent publication US20230295131A1, “INHIBITORS OF RHO-ASSOCIATED COILED-COIL KINASE” (Angion Biomedica Corp., priority 2020, published 2023)
Like-named read-outs stand apart in the source and are kept apart here.

What was measured:
[1] = target: T1, ROCK2 (Homo sapiens, UniProt O75116); test: ROCK2 kinase binding affinity, DiscoverX KINOMEscan KdELECT; conditions: for ROCK2 Selectivity: selectivity for ROCK2 over ROCK1 from Kd
T1 construct: T7 phage fusion (kinase-tagged phage) or DNA tag for qPCR detection
T1 sequence (O75116 whole entry, the tested form may be a part): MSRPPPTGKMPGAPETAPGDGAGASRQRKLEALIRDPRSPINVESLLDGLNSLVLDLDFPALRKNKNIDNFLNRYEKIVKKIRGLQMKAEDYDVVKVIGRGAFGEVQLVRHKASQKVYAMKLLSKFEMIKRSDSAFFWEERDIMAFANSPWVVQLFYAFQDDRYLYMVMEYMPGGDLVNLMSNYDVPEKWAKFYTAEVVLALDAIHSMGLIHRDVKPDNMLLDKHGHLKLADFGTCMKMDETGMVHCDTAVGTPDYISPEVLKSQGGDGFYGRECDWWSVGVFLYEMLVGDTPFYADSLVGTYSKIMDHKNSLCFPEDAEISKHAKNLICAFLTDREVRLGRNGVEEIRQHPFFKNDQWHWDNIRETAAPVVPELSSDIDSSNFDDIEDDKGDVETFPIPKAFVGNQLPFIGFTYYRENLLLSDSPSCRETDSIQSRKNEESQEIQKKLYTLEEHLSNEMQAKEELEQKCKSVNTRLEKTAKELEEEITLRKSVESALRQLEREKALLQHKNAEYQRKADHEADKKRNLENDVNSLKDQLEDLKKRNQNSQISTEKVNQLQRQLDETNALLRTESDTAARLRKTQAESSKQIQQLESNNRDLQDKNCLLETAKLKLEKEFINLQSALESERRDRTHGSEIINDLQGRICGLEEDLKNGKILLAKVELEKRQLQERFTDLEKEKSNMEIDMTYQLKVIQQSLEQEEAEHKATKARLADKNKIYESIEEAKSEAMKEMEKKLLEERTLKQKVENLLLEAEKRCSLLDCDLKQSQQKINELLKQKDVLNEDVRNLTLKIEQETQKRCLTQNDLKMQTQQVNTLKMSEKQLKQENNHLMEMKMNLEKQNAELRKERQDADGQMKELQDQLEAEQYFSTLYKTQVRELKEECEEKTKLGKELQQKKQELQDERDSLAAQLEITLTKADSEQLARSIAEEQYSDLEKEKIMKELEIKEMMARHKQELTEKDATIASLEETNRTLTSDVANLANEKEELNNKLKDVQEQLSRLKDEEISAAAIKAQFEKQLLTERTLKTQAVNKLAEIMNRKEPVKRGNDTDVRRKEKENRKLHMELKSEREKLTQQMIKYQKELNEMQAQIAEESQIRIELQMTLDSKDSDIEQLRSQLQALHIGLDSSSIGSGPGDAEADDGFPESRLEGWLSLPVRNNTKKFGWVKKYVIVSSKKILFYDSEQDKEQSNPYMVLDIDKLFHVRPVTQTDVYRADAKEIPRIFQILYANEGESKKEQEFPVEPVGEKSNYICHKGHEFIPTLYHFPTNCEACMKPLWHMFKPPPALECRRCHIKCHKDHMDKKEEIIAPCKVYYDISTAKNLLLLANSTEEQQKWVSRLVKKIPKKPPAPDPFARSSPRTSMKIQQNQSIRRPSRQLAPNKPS
Outline: (§1)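 Competition binding of DNA- or phage-tagged kinase to immobilised ligand beads, with bound kinase quantified by qPCR of eluates.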

[2] = tested on: miRNAs in hepatic homogenates; test: miRNA quantification in liver homogenates of the NASH model; assay type: in vivo, mice
Experimental: (§2) 2. Pharmacodynamic and Efficacy Profile in Hepatic Diseases: • The activity of Ex. 65 was evaluated in a model of fast-food diet (FFD)+CCl4+sugar-induced NASH. Adult male mice were randomized to vehicle of 30 mg/kg test compound, IP, twice-daily for two weeks. Treatment with Ex. 65 reduced hepatic lipid accumulation (FIG. 3) and NAFLD activity score (NAS; FIG. 4).
MicroRNAs (miRNAs) from liver homogenates from the study described above were quantified. Compared to healthy livers, 65 differentially expressed miRNAs from NASH livers were identified, of which 22 were corrected by treatment with Ex. 65 (see Table 6).

[3] = tested on: fast-food diet (FFD)+CCl4+sugar-induced NASH; test: Fast-food diet (FFD)+CCl4+sugar-induced NASH model; assay type: in vivo, mice; conditions: 30 mg/kg, IP, twice-daily for two weeks; for hepatic lipid accumulation (liver steatosis): FIG. 3; for NAFLD activity score (NAS): FIG. 4
Experimental: as §2

[4] = Pharmacokinetic profile, compound levels in the portal vein; assay type: in vivo, C57BL/6 Mouse
Experimental: For assessing compound levels in the portal vein, 7-8 week old male C57BL/6 animals were dosed orally with 10 mg/kg compound of Ex. 65 (mesylate salt) in 0.5% carboxymethyl cellulose (CMC) in water. Serum samples were collected from the portal vein at 15, 30, 60 120 and 240 minutes after dosing. Samples were analyzed for compound by LC-MS.

[5] = Pharmacokinetic profile, compound levels in the vena cava; assay type: in vivo, C57BL/6 Mouse; conditions: po 10 mg/kg in 0.5% CMC suspension
Experimental: For assessing compound levels in the vena cava, 10-11 week old male C57BL/6 animals were dosed orally with 10 mg/kg of Ex. 65 (mesylate salt) in 0.5% carboxymethyl cellulose (CMC) in water. Serum samples were collected from the portal vein at 15, 30, 60 120, 240, 360 and 480 minutes after dosing. Samples were analyzed for compound concentration by LC-MS.

[6] = tested on: CTGF in mouse embryonic fibroblasts (MEFs); test: TGFβ1-induced CTGF production assay; assay type: cell-based; conditions: 1 hour pretreatment before TGFβ1, real time PCR
Experimental: Mouse embryonic fibroblasts (MEFs) were isolated, starved overnight, then pretreated with Ex. 65 or Ex. 93 for 1 hour prior to addition of TGFβ1. RNA was isolated from cells and real time PCR was performed for CTGF.

[7] = target: T2, ROCK1 (Homo sapiens, UniProt Q13464); test: ROCK1 kinase binding affinity, DiscoverX KINOMEscan KdELECT; conditions: 11-point 3-fold dilution
T2 construct: T7 phage fusion (kinase-tagged phage) or DNA tag for qPCR detection
T2 sequence (Q13464 whole entry, the tested form may be a part): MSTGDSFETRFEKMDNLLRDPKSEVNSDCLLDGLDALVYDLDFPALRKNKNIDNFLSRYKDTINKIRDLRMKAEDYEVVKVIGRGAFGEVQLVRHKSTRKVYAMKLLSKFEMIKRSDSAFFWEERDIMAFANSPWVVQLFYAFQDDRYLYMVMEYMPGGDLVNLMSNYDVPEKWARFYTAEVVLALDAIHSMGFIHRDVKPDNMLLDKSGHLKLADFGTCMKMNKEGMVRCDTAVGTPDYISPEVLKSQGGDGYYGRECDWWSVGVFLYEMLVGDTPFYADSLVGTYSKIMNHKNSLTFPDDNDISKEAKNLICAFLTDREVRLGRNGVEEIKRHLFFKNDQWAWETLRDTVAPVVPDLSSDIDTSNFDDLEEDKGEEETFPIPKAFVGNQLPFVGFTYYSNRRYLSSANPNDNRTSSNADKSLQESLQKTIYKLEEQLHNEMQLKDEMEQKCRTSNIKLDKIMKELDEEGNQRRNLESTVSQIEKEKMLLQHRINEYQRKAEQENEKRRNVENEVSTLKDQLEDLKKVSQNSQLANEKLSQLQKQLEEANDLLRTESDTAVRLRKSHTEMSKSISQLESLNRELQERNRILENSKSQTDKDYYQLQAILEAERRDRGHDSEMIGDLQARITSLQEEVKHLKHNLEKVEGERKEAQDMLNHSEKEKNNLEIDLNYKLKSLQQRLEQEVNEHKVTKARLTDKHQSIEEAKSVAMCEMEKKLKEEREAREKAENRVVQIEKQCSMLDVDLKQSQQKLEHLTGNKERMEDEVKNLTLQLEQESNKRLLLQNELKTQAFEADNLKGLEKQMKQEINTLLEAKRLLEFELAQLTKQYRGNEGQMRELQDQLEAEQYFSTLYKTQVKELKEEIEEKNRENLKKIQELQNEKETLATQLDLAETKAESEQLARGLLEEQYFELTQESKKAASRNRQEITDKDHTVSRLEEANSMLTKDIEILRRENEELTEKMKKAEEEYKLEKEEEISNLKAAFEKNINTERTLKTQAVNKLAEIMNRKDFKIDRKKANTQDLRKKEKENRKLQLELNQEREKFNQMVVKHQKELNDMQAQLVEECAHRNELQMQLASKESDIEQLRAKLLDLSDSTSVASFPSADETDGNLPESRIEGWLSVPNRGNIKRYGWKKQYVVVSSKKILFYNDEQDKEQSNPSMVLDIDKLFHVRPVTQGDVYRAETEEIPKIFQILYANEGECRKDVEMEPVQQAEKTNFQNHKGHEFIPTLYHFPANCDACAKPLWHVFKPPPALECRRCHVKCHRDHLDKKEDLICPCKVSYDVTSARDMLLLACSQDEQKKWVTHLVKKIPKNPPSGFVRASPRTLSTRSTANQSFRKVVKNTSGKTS
Outline: as §1

[8] = tested on: Hepatic stellate cells; test: Gel contraction assay (TGFβ1-induced); assay type: cell-based; conditions: test compound at 100 μM, 1 hour pretreatment, TGFβ1 24 hours
Experimental: Hepatic stellate cells were plated onto collagen coated plates and pretreated with test compound (at 100 μM) for 1 hour. TGFβ1 is then added for 24 hours, and images are taken.

[9] = tested on: fibroblasts; conditions: fibroblasts treated with KD025; cited from earlier work
[10] = 12-16 weeks of dosing in healthy volunteers and patients; cited from earlier work
[11] = tested on: murine autoimmune disease; conditions: KD025 administration; cited from earlier work
[12] = tested on: chronic hepatitis C infection; conditions: cited from earlier work
[13] = tested on: HCC; conditions: HCC patients at advanced stage; cited from earlier work
[14] = KINOMEscan KdELECT, 11-point 3-fold dilution, read-out: Kd (μM) ROCK2
[15] = 30 mg/kg IP twice-daily two weeks
[16] = male, C57BL/6, mouse, portal vein serum, po 10 mg/kg in 0.5% CMC suspension, mesylate salt, serum
[17] = male, C57BL/6, mouse, vena cava serum, mesylate salt, serum

Compound: O[C@H]1CC[C@@H](Nc2nccc(-c3nccc(C#Cc4ccc5[nH]ncc5c4)n3)n2)CC1 [Ex. 65, (1s,4s)-4-((4-((1H-Indazol-5-yl)ethynyl)-[2,4′-bipyrimidin]-2′-yl)amino)cyclohexanol]
- Kd [1, 14]: < 0.01 µM
- ROCK2 Selectivity [1]: **** (>500-fold selectivity for ROCK2)
- hepatic levels of oncomiR-181a [2, 15]: reduced
- hepatic levels of oncomiR-425 [2, 15]: reduced
- Mean (disease + Ex. 65) mmu-miR-5123 ([2]; hepatic homogenates, mean control 3.22, disease 1.53): 3.54
- Mean (disease + Ex. 65) mmu-miR-871-3p ([2]; hepatic homogenates, mean control 4.08, disease 1.53): 7.98
- Mean (disease + Ex. 65) mmu-miR-7115-5p ([2]; hepatic homogenates, mean control 4.31, disease 8.54): 2.41
- Mean (disease + Ex. 65) mmu-let-7k ([2]; hepatic homogenates, mean control 9.04, disease 13.85): 7.72
- Mean (disease + Ex. 65) mmu-miR-93-3p ([2]; hepatic homogenates, mean control 39.45, disease 76.50): 46.52
- Mean (disease + Ex. 65) mmu-miR-542-5p ([2]; hepatic homogenates, mean control 66.04, disease 74.42): 39.03
- Mean (disease + Ex. 65) mmu-miR-27a-5p ([2]; hepatic homogenates, mean control 71.79, disease 98.65): 53.13
- Mean (disease + Ex. 65) mmu-miR-106a-5p ([2]; hepatic homogenates, mean control 115.29, disease 149.51): 114.11
- Mean (disease + Ex. 65) mmu-miR-125a-3p ([2]; hepatic homogenates, mean control 245.12, disease 297.02): 182.06
- Mean (disease + Ex. 65) mmu-miR-501-3p ([2]; hepatic homogenates, mean control 364.92, disease 489.94): 296.78
- Mean (disease + Ex. 65) mmu-miR-339-3p ([2]; hepatic homogenates, mean control 427.46, disease 502.07): 426.25
- Mean (disease + Ex. 65) mmu-miR-802-5p ([2]; hepatic homogenates, mean control 1094.11, disease 614.54): 899.47
- Mean (disease + Ex. 65) mmu-miR-322-3p ([2]; hepatic homogenates, mean control 1115.59, disease 1416.47): 949.59
- Mean (disease + Ex. 65) mmu-miR-17-3p ([2]; hepatic homogenates, mean control 1200.81, disease 1454.34): 1161.55
- Mean (disease + Ex. 65) mmu-miR-351-5p ([2]; hepatic homogenates, mean control 1248.83, disease 1603.84): 889.81
- Mean (disease + Ex. 65) mmu-miR-99b-5p ([2]; hepatic homogenates, mean control 1421.33, disease 1933.41): 1099.61
- Mean (disease + Ex. 65) mmu-miR-425-5p ([2]; hepatic homogenates, mean control 1716.15, disease 2037.69): 1524.04
- Mean (disease + Ex. 65) mmu-miR-181a-5p ([2]; hepatic homogenates, mean control 3789.12, disease 5124.26): 2941.29
- Mean (disease + Ex. 65) mmu-miR-320-3p ([2]; hepatic homogenates, mean control 4080.44, disease 5204.90): 3896.99
- Mean (disease + Ex. 65) mmu-miR-93-5p ([2]; hepatic homogenates, mean control 36188.01, disease 41626.66): 31184.61
- Mean (disease + Ex. 65) mmu-miR-143-3p ([2]; hepatic homogenates, mean control 67983.70, disease 80209.00): 58204.03
- Mean (disease + Ex. 65) mmu-miR-191-5p ([2]; hepatic homogenates, mean control 118228.91, disease 141957.68): 119365.71
- number of differentially expressed miRNAs of NASH livers corrected by treatment ([2]; of 65 differentially expressed miRNAs, 30 mg/kg IP twice-daily two weeks): 22
- hepatic lipid accumulation (liver steatosis) [3]: reduced
- hepatic lipid accumulation (liver steatosis) ([3]; listed as compound 65): reduction
- NAFLD activity score (NAS) [3]: reduced
- NAFLD activity score (NAS) ([3]; listed as compound 65): reduction
- AUC [4, 16]: 697 ng·h/mL
- Cmax [4, 16]: 1540 nM
- oral bioavailability and liver entry ([4]; mice, po, portal vein versus vena cava): preferential liver entry
- Cmax as multiple of Kd, in portal vein ([4]; po 10 mg/kg in 0.5% CMC suspension): 1904*Kd
- F % in portal vein ([4]; po 10 mg/kg in 0.5% CMC suspension, mesylate salt): 22%
- AUC [5, 17]: 145 ng·h/mL
- Cmax [5, 17]: 258 nM
- Cmax as multiple of Kd, in vena cava [5]: 318*Kd
- F % in vena cava ([5]; mesylate salt): 4.6%
- CTGF production in embryonic fibroblasts [6]: attenuated
- Kd [7]: 0.1 to 0.99 µM
- TGFβ1-induced gel contraction in hepatic stellate cells [8]: significantly attenuated

Compound: O[C@H]1CC[C@@H](Nc2nccc(-c3nccc(C#Cc4ccc5[nH]nc(F)c5c4)n3)n2)CC1 [Ex. 93, (1s,4s)-4-((4-((3-Fluoro-1H-Indazol-5-yl)ethynyl)-[2,4′-bipyrimidin]-2′-yl)amino)cyclohexanol]
- Kd [1, 14]: < 0.01 µM
- ROCK2 Selectivity [1]: **** (>500-fold selectivity for ROCK2)
- Kd [7]: 1 to 9.9 µM
- TGFβ1-induced gel contraction in hepatic stellate cells [8]: significantly attenuated

Compound: CC(C)NC(=O)COc1cccc(-c2nc(Nc3ccc4[nH]ncc4c3)c3ccccc3n2)c1 [KD025]
- expression of profibrotic mRNA including CTGF [9]: decreased
- hemodynamic or other side effects [10]: no hemodynamic or other side effects
- expression of pro-inflammatory, fibrosis-linked cytokines [11]: decreased
- murine autoimmune disease [11]: mitigated

Compound: interferon
- response to antiviral therapy ([12]; in combination with ribavirin): ~50%
- response to antiviral therapy ([12]; used alone): ~20%

Compound: CNC(=O)c1cc(Oc2ccc(NC(=O)Nc3ccc(Cl)c(C(F)(F)F)c3)cc2)ccn1 [sorafenib]
- extension of median survival [13]: less than 3 months

Compound: Fc1cncc(CNc2nccc(-c3nccc(C#Cc4ccc5[nH]ncc5c4)n3)n2)c1 [Ex. 29, 4-((1H-Indazol-5-yl)ethynyl)-N-((5-fluoropyridin-3-yl)methyl)-[2,4′-bipyrimidin]-2′-amine]
- Kd [1, 14]: 0.1 to 0.99 µM
- ROCK2 Selectivity [1]: * (<50-fold selectivity for ROCK2)
- Kd [7]: 1 to 9.9 µM

Compound: O=C(CNc1nccc(-c2nccc(C#Cc3ccc4[nH]ncc4c3)n2)n1)NC12CCC(CC1)C2 [Ex. 2, 2-((4-((1H-Indazol-5-yl)ethynyl)-[2,4′-bipyrimidin]-2′-yl)amino)-N-(bicyclo[2.2.1]heptan-1-yl)acetamide]
- Kd [1, 14]: < 0.01 µM
- ROCK2 Selectivity [1]: *** (151 to 500-fold selectivity for ROCK2)
- Kd [7]: 0.1 to 0.99 µM

Compound: CC1(O)CN(C(=O)CNc2nccc(-c3nccc(C#Cc4ccc5[nH]ncc5c4)n3)n2)C1 [Ex. 84, 2-((4-((1H-Indazol-5-yl)ethynyl)-[2,4′-bipyrimidin]-2′-yl)amino)-1-(3-hydroxy-3-methylazetidin-1-yl)ethanone]
- Kd [1, 14]: 0.01 to 0.099 µM
- ROCK2 Selectivity [1]: * (<50-fold selectivity for ROCK2)
- Kd [7]: 1 to 9.9 µM

Compound: Fc1cc(F)c(F)c(CNc2nccc(-c3nccc(C#Cc4ccc5[nH]nc(F)c5c4)n3)n2)c1 [Ex. 60, 4-((3-Fluoro-1H-indazol-5-yl)ethynyl)-N-(2,3,5-trifluorobenzyl)-[2,4′-bipyrimidin]-2′-amine]
- Kd [1, 14]: 1 to 9.9 µM
- ROCK2 Selectivity [1]: * (<50-fold selectivity for ROCK2)
- Kd [7]: 10 to 100 µM

Compound: O[C@H]1CC[C@@H](Nc2nccc(-c3nccc(C#Cc4ccc5[nH]cnc5c4)n3)n2)CC1 [Ex. 95, (1s,4s)-4-((4-((1H-Benzo[d]imidazol-5-yl)ethynyl)-[2,4′-bipyrimidin]-2′-yl)amino)cyclohexanol]
- Kd [1]: 0.01 to 0.099 µM
- ROCK2 Selectivity [1]: *** (151 to 500-fold selectivity for ROCK2)
- Kd [7]: 10 to 100 µM
